From US11685732B2, “MYST family histone acetyltransferase inhibitors” (Epizyme, Inc., priority 2017, dated 2023)
pIC50: −log10 of the molar value.

Legend:
KAT-5 = KAT-5 (Homo sapiens (Human), UniProt Q92993); test: KAT-5 biochemical inhibition assay (SAMDI mass spectrometry)
Procedure, shortened: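 Acetylation of 1 μM peptide by 9 nM enzyme with 0.5 μM acetyl-CoA (final) was run 90 min at 25° C in Tris pH 8.0 buffer with DTT, after compound preincubation at 2% DMSO. Formic acid stopped the reaction, and product was quantified by SAMDI mass spectrometry to derive IC50.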

KAT-8 = KAT-8 (Homo sapiens (Human), UniProt Q9H7Z6); test: KAT-8 biochemical inhibition assay (SAMDI mass spectrometry)
Sequence of KAT-8 (Q9H7Z6 other isoform, or with tags, fused parts or gaps): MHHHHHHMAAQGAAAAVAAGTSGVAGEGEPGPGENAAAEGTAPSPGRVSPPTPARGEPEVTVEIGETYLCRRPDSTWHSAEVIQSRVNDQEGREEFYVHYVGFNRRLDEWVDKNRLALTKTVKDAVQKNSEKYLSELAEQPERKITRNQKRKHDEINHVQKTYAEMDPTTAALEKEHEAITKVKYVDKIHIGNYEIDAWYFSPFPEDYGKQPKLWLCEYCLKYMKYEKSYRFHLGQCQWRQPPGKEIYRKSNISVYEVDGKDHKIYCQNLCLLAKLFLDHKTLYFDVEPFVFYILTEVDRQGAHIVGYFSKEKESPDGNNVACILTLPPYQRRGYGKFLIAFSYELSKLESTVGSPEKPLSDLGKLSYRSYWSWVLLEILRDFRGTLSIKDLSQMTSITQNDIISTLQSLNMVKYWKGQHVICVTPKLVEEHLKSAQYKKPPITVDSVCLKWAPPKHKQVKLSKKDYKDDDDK
Procedure, shortened: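 Acetylation of 1 μM peptide substrate with 5 μM acetyl-CoA by 12.5 nM enzyme, compound pre-incubated, 2% DMSO, Tris pH 8.0 buffer with DTT, 25 °C for 90 min. Quench with 0.5% formic acid; product read by SAMDI mass spectrometry to give IC50.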

KAT-6A = KAT-6A (Homo sapiens (Human), UniProt Q92794); test: KAT-6A biochemical inhibition assay (SAMDI mass spectrometry)
Sequence of KAT-6A (Q92794 other isoform, or with tags, fused parts or gaps): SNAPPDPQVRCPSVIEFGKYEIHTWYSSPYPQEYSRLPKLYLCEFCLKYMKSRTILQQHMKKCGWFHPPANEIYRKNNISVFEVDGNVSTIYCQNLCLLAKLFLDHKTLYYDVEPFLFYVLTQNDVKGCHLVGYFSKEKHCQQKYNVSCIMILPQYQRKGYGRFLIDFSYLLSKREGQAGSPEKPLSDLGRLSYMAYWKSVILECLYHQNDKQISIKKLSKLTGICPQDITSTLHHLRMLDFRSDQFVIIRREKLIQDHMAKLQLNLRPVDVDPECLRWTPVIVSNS
Procedure, shortened: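 IC50 values came from SAMDI time-of-flight mass spectrometry after formic acid quench (0.5% final). Acetylation ran 90 min at 25 °C with 1 μM acetyl coenzyme A and 1 μM peptide substrate, following compound pre-incubation with 12.5 nM KAT-6A in Tris buffer pH 8.0 containing DTT, 2% DMSO final.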

KAT-7 = KAT-7 (Homo sapiens (Human), UniProt O95251); test: KAT-7 biochemical inhibition assay (SAMDI mass spectrometry)
Sequence of KAT-7 (O95251 other isoform, or with tags, fused parts or gaps): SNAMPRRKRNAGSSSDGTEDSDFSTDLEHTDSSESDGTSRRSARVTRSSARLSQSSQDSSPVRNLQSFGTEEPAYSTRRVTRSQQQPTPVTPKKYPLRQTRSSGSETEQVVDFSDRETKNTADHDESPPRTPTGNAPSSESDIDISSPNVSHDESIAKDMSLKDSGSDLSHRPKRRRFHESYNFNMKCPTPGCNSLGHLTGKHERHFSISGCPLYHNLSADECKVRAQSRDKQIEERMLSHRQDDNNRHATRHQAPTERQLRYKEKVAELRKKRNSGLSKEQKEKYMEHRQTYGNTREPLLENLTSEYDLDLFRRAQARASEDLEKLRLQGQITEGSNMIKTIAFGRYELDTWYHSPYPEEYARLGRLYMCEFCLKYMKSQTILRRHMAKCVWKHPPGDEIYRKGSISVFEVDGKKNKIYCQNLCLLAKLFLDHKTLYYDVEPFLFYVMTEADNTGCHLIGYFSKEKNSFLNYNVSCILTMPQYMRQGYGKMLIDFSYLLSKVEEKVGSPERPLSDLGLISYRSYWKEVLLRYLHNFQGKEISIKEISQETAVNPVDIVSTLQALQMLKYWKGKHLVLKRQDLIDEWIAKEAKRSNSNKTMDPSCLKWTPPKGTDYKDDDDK
Procedure, shortened: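 Read-out was SAMDI time-of-flight MS of formic acid-quenched reactions (0.5% final). Compound dilutions (2% DMSO final) were pre-incubated with 6 nM KAT-7 in 50 mM Tris pH 8.0 with 1 mM DTT, then given 1 μM peptide substrate and 2 μM acetyl-CoA for 120 min at 25 °C. IC50 values were derived.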

Sequence of KAT-5 (Q92993 other isoform, or with tags, fused parts or gaps): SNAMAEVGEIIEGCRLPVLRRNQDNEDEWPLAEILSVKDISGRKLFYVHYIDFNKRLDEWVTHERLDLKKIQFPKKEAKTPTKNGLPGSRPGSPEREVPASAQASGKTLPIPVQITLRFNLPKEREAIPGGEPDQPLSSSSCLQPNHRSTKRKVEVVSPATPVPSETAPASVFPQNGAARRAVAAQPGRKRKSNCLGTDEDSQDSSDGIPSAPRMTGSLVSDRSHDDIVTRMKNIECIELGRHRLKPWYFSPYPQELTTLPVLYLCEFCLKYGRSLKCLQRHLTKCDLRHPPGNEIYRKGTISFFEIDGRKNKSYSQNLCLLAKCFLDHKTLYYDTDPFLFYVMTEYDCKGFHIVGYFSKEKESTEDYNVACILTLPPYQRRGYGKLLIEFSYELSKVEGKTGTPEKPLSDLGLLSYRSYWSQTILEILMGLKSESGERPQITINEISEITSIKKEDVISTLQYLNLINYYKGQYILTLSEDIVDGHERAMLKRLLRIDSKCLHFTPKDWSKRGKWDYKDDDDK

| pIC50 (KAT-5) | pIC50 (KAT-8) | pIC50 (KAT-6A) | pIC50 (KAT-7) | SMILES |
| --- | --- | --- | --- | --- |
| > 5.00 | 4.30 to 5.00 | > 5.00 | > 5.00 | Cn1cnc(-c2cc(Cl)c(F)c(C(=O)NNS(=O)(=O)C[C@H]3C[C@H]4CC[C@@H]3O4)c2)c1 [Compound I-298] |
| > 5.00 | 4.30 to 5.00 | > 5.00 | > 5.00 | CCNC(=O)N[C@H]1CCC[C@@H](CS(=O)(=O)NNC(=O)c2cc(-c3cn(C)cn3)cc(Cl)c2F)C1 [Compound I-287] |
| > 5.00 | 4.30 to 5.00 | > 5.00 | > 5.00 | COCCOc1cccc(S(=O)(=O)NNC(=O)c2cc(-c3cn(C)cn3)cc(Cl)c2F)c1 [Compound I-368] |
| 4.30 to 5.00 | 4.30 to 5.00 | 4.30 to 5.00 | > 5.00 | Cn1cnc(-c2cc(Cl)c(F)c(C(=O)NNS(=O)(=O)C[C@H]3CCN(C(=O)OC(C)(C)C)C3)c2)c1 [Compound I-122] |
| > 5.00 | 4.30 to 5.00 | 4.30 to 5.00 | > 5.00 | Cn1cnc(-c2cc(Cl)c(F)c(C(=O)NNS(=O)(=O)C[C@H]3CCC[C@@H](OCc4ccccc4)C3)c2)c1 [Compound I-290] |
| 4.30 to 5.00 | < 4.00 | 4.00 to 4.30 | > 5.00 | CCn1cc(-c2cc(Cl)c(F)c(C(=O)NNS(=O)(=O)C3CCCCC3)c2)nc1C [Compound I-46] |
| > 5.00 | 4.30 to 5.00 | 4.30 to 5.00 | > 5.00 | CNC(=O)N1CC[C@H](CS(=O)(=O)NNC(=O)c2cc(-c3cn(C)cn3)cc(Cl)c2F)C1 [Compound I-210] |
| > 5.00 | 4.30 to 5.00 | > 5.00 | > 5.00 | CN(C)C(=O)N[C@H]1C[C@H](CS(=O)(=O)NNC(=O)c2cc(-c3cn(C)cn3)cc(Cl)c2F)C1 [Compound I-180] |
| > 5.00 | < 4.00 | 4.30 to 5.00 | > 5.00 | Cc1nc(-c2cc(Cl)c(F)c(C(=O)NNS(=O)(=O)C3CCCCC3)c2)cn1C [Compound I-26] |
| > 5.00 | 4.30 to 5.00 | > 5.00 | > 5.00 | CC(C1CCCCC1)S(=O)(=O)NNC(=O)c1cc(-c2cn(C)cn2)cc(Cl)c1F (stereo not drawn) [Compound I-256] |
| > 5.00 | 4.30 to 5.00 | > 5.00 | > 5.00 | CNC(=O)NC1CCCC(CS(=O)(=O)NNC(=O)c2cc(-c3cn(C)cn3)cc(Cl)c2F)C1 (stereo not drawn) [Compound I-118] |
| 4.30 to 5.00 | < 4.00 | < 4.00 | > 5.00 | Cn1cc(-c2cc(Cl)c(F)c(C(=O)NNS(=O)(=O)CC3CCOCC3)c2)cn1 [Compound I-16] |
| > 5.00 | 4.30 to 5.00 | > 5.00 | > 5.00 | Cn1cnc(-c2cc(Cl)c(F)c(C(=O)NNS(=O)(=O)CC34CCC(CC3)CC4)c2)c1 [Compound I-334] |
| > 5.00 | 4.30 to 5.00 | > 5.00 | > 5.00 | Cn1cnc(-c2cc(Cl)c(F)c(C(=O)NNS(=O)(=O)C[C@@H]3C[C@H]4CC[C@@H]3O4)c2)c1 [Compound I-299] |
| > 5.00 | 4.30 to 5.00 | > 5.00 | > 5.00 | CCOC1CCC(CS(=O)(=O)NNC(=O)c2cc(-c3cn(C)cn3)cc(Cl)c2F)CC1 (stereo not drawn) [Compound I-347] |
| > 5.00 | 4.30 to 5.00 | > 5.00 | > 5.00 | Cn1cnc(-c2cc(Cl)c(F)c(C(=O)NNS(=O)(=O)C[C@H]3CC[C@H](NC(=O)Cc4ccccn4)CC3)c2)c1 [Compound I-249] |
| > 5.00 | 4.30 to 5.00 | > 5.00 | > 5.00 | Cn1cnc(-c2cc(Cl)c(F)c(C(=O)NNS(=O)(=O)C[C@H]3CCC[C@H](NC(=O)OC(C)(C)C)C3)c2)c1 [Compound I-350] |
| > 5.00 | 4.30 to 5.00 | 4.30 to 5.00 | > 5.00 | CCNC(=O)N1CCC(CS(=O)(=O)NNC(=O)c2cc(-c3cn(C)cn3)cc(Cl)c2F)C1 (stereo not drawn) [Compound I-88] |
